According to patent US20120258980A1, “Antibacterial Agent for Drug-Resistant Bacteria, Method for Screening for Same, and Use of Same” (priority 2009, published 2012):
Read-outs that look alike come from different tables or passages of the source.

Key:
[1] = tested on: VRSA clinical isolates; conditions: based on NARSA, cited from earlier work
[2] = tested on: MRSA, CA-MRSA and MSSA of Staphylococcus aureus; experiment: MIC measurement, Test Example 4 (MRSA, CA-MRSA and MSSA strains); format: cell-based
Description: (§1) Each of the bacterial strains listed in Table 1-1 was shake-cultured at 37° C. overnight in 4 mL of a medium (Tryptical Soy Broth: TSB, product of Becton Dickinson and Company). FDA209P was used as a control.
(§2) After completion of culturing, the resultant culture was suspended in a cation-adjusted Mueller Hinton Broth (CAMHB, product of Becton Dickinson and Company). Then, the obtained bacterial culture was adjusted in absorbance with the CAMHB so that the absorbance at 578 nm of the bacterial culture was adjusted to 0.3 measured by an absorption spectrometer. In addition, the resultant bacterial culture was 500-fold diluted with the CAMHB.
(§3) Each of the 500-fold diluted, pre-cultured bacterial cultures was added at 50 μL/well to the CAMHB containing the quinolones and the nybomycins at various concentrations (50 μL/well), followed by statically culturing at 37° C. overnight.
(§4) After completion of culturing, the growth of the bacteria was visually determined based on turbidity to measure MIC in each bacterial strain.
Glycopeptides, imipenem, quinolones and nybomycins were studied for antibacterial activity against the bacterial strains listed in Table 2-1; i.e., MRSA, CA-MRSA and MSSA of Staphylococcus aureus.

[3] = tested on: VISA clinical isolates of MRSA (VI-MRSA) and of MSSA (VI-MSSA); experiment: microbe, parasite or virus in culture; format: cell-based, Staphylococcus aureus
Description: as §1, §2, §3, §4
Here, the glycopeptides used were VCM and TEIC. The β-lactam used was OXA.

teicoplanin
MIC ([1]; VRS1, VRSA, Michigan): 64 µg/mL | MIC ([1]; VRS2, VRSA, Pennsylvania): 8 µg/mL | MIC ([1]; VRS3, VRSA, New York): 16 µg/mL | MIC ([1]; VRS4, VRSA, New York): 32 µg/mL | MIC ([1]; VRS5, VRSA, Michigan): 128 µg/mL | MIC ([1]; VRS6, VRSA, Michigan): >256 µg/mL | MIC ([1]; VRS7, VRSA, Michigan): >256 µg/mL | MIC ([2]; ATCC 29213, MSSA): 2 µg/mL | MIC ([2]; COL, MRSA): 2 µg/mL | MIC ([2]; FDA209P, MSSA): 0.06 µg/mL | MIC ([2]; ISA12-1, MRSA): 1 µg/mL | MIC ([2]; ISA12-2, MRSA): 1 µg/mL | MIC ([2]; ISA35-1, MRSA): 2 µg/mL | MIC ([2]; ISA37-1, MSSA): 1 µg/mL | MIC ([2]; ISA49-1, MSSA): 0.5 µg/mL | MIC ([2]; ISA51-1, MSSA): 0.5 µg/mL | MIC ([2]; ISA56-3, MRSA): 4 µg/mL | MIC ([2]; ISA58-1, MRSA): 2 µg/mL | MIC ([2]; ISA62-1, MRSA): 1 µg/mL | MIC ([2]; ISA73-1, MSSA): 2 µg/mL | MIC ([2]; KBSA32, MRSA): 1 µg/mL | MIC ([2]; KBSA34, MRSA): 1 µg/mL | MIC ([2]; KBSA72, MRSA): 1 µg/mL | MIC ([2]; KBSA96, MRSA): 1 µg/mL | MIC ([2]; KBSA171, MRSA): 0.25 µg/mL | MIC ([2]; KSA24, MRSA): 1 µg/mL | MIC ([2]; KSA31, MRSA): 1 µg/mL | MIC ([2]; KSA36, MRSA): 1 µg/mL | MIC ([2]; MW2, CA-MRSA): 0.5 µg/mL | MIC ([2]; N315, MRSA): 0.25 µg/mL | MIC ([2]; NCTC 8325, MSSA): 0.5 µg/mL | MIC ([2]; USA300 FPR3757, CA-MRSA): 1 µg/mL | MIC ([3]; 99/3700-W, VI-MRSA, The United Kingdom): 2 µg/mL | MIC ([3]; 99/3759-V, VI-MRSA, The United Kingdom): 8 µg/mL | MIC ([3]; 28160, VI-MRSA, South African Republic): 4 µg/mL | MIC ([3]; 98141, VI-MRSA, France): 4 µg/mL | MIC ([3]; A7 (JCSC4842), VI-MRSA, Taiwan): 8 µg/mL | MIC ([3]; AMC11094, VI-MRSA, Korea): 8 µg/mL | MIC ([3]; B7 (JCSC4852), VI-MRSA, Taiwan): 16 µg/mL | MIC ([3]; BR1, VI-MRSA, Brazil): 2 µg/mL | MIC ([3]; BR2, VI-MRSA, Brazil): 1 µg/mL | MIC ([3]; BR3, VI-MRSA, Brazil): 4 µg/mL | MIC ([3]; BR4, VI-MRSA, Brazil): 8 µg/mL | MIC ([3]; BR5, VI-MRSA, Brazil): 4 µg/mL | MIC ([3]; HIP06297, VI-MRSA, America): 8 µg/mL | MIC ([3]; HIP06854, VI-MRSA, America): 2 µg/mL | MIC ([3]; HIP07920, VI-MRSA, America): 2 µg/mL | MIC ([3]; HIP07930, VI-MRSA, America): 4 µg/mL | MIC ([3]; HIP08926, VI-MRSA, America): 4 µg/mL | MIC ([3]; HIP09143, VI-MRSA, America): 4 µg/mL | MIC ([3]; HIP09313, VI-MRSA, America): 4 µg/mL | MIC ([3]; HIP09433, VI-MRSA, America): 8 µg/mL | MIC ([3]; HIP09662, VI-MRSA, America): 4 µg/mL | MIC ([3]; HIP09735, VI-MRSA, America): 4 µg/mL | MIC ([3]; HIP09737, VI-MSSA, America): 4 µg/mL | MIC ([3]; HIP09740, VI-MRSA, America): 4 µg/mL | MIC ([3]; HIP10267, VI-MRSA, America): 4 µg/mL | MIC ([3]; HIP10540, VI-MRSA, America): 16 µg/mL | MIC ([3]; HIP12864, VI-MRSA, America): 8 µg/mL | MIC ([3]; HIP13036, VI-MRSA, America): 4 µg/mL | MIC ([3]; HIP13057, VI-MRSA, America): 8 µg/mL | MIC ([3]; IL (HIP7737), VI-MRSA, America): 4 µg/mL | MIC ([3]; JCSC7193, VI-MRSA, Thailand): 8 µg/mL | MIC ([3]; JCSC7195, VI-MRSA, Thailand): 8 µg/mL | MIC ([3]; JCSC7203, VI-MRSA, Thailand): 4 µg/mL | MIC ([3]; LIM2, VI-MRSA, France): 8 µg/mL | MIC ([3]; LY-1999-01, VI-MSSA, Oman): 8 µg/mL | MIC ([3]; LY-1999-03, VI-MRSA, Oman): 8 µg/mL | MIC ([3]; MI (HIP5827), VI-MRSA, America): 8 µg/mL | MIC ([3]; Mu3, VI-MRSA, Japan): 8 µg/mL | MIC ([3]; Mu50, VI-MRSA, Japan): 16 µg/mL | MIC ([3]; NJ (HIP5836), VI-MRSA, America): 8 µg/mL | MIC ([3]; NRS76, VI-MSSA, America): 4 µg/mL | MIC ([3]; NRS79, VI-MRSA, America): 8 µg/mL | MIC ([3]; NRS118, VI-MRSA, America): 8 µg/mL | MIC ([3]; NRS126, VI-MRSA, America): 2 µg/mL | MIC ([3]; P1V44, VI-MSSA, Belgium): 16 µg/mL | MIC ([3]; PC, VI-MRSA, America): 4 µg/mL | MIC ([3]; SA MER-S6, VI-MSSA, France): 8 µg/mL | MIC ([3]; SA MER-S12, VI-MSSA, France): 16 µg/mL | MIC ([3]; SA MER-S20, VI-MSSA, France): 32 µg/mL
